Assay results published in PubChem BioAssay (NCI).
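Results reflect a 48-hour exposure of cells in 96-well plates to compound at five concentrations. The concentration for 50% growth inhibition is given as GI50. TGI is the concentration that stops growth completely.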

How the values were obtained:
Assay in all cases: inhibition of tumour cell growth, NCI panel, 48 h
[1] = tested on: COLO 205 colon
[2] = tested on: KM12 colon
[3] = tested on: K-562 leukemia
[4] = tested on: SNB-75 CNS
[5] = tested on: EKVX NSCLC
[6] = tested on: NCI-H460 lung
[7] = tested on: A498 renal
[8] = tested on: CCRF-CEM leukemia
[9] = tested on: TK-10 renal
[10] = tested on: LOX IMVI melanoma

| Structure (SMILES) | TGI [1] | TGI [2] | TGI [3] | TGI [4] | TGI [5] | TGI [6] | TGI [7] | TGI [8] | TGI [9] | TGI [10] | GI50 [1] | GI50 [2] | GI50 [3] | GI50 [4] | GI50 [5] | GI50 [6] | GI50 [7] | GI50 [8] | GI50 [9] | GI50 [10] |
| --- | --- | --- | --- | --- | --- | --- | --- | --- | --- | --- | --- | --- | --- | --- | --- | --- | --- | --- | --- | --- |
| C=C1CC2(OC1=O)c1ccccc1CCc1ccccc12 | 3.57 µM | 9.4 µM | 4.81 µM | 15.6 µM | 20.3 µM | 26.7 µM | 41.2 µM | 2.49 µM | 7.09 µM | 2.9 µM |  |  |  |  |  |  |  |  |  |  |
| CC1=COC2=C(C)C(=O)C(=O)c3c(C)ccc1c32 | 8.91 µM | 26.4 µM | > 100 µM | 42.6 µM | 24.7 µM | 15.4 µM | 41.8 µM | > 76.1 µM | > 92.6 µM | 16 µM |  |  |  |  |  |  |  |  |  |  |
| CC1CC(=O)C(C(O)CC2CC(=O)N(c3ccccc3)C(=O)C2)C(C)C1 (stereo not drawn) | > 100 µM | > 100 µM | > 100 µM | > 100 µM | > 100 µM | > 100 µM | > 100 µM | > 100 µM | > 100 µM | > 100 µM |  |  |  |  |  |  |  |  |  |  |
| CSC(=S)NN=C1CCCCC1 | > 100 µM | > 100 µM | 83.2 µM | > 100 µM | > 100 µM | > 100 µM | > 100 µM | 87.8 µM | 89.7 µM | 53.1 µM |  |  |  |  |  |  |  |  |  |  |
| Nc1cc(C(F)F)c(-c2nc(N3[C@@H]4CC[C@H]3COC4)nc(N3[C@@H]4CC[C@H]3COC4)n2)cn1 | 14.5 µM | > 100 µM | > 100 µM | 0.793 µM | 6.61 µM | > 100 µM | 0.232 µM | > 100 µM | 3.22 µM | > 48 µM | 0.329 µM | 0.569 µM | 0.673 µM | 0.06 µM | 0.277 µM | 0.306 µM | 0.0367 µM | 0.69 µM | 0.156 µM | 0.336 µM |
| COc1ccc2[nH]cc(/C=C3\C(=O)Nc4ccccc43)c2c1 | 23.2 µM | 13 µM | 9.83 µM | 15.1 µM | 15.1 µM | 18.7 µM | 15.1 µM | 18.8 µM | 31.3 µM | 15.9 µM | 3.86 µM | 0.246 µM | 2.28 µM | 3.14 µM | 2.73 µM | 4.09 µM | 3.15 µM | 3.94 µM | 7.98 µM | 4.62 µM |
| CCOC(=O)C(=Cc1ccc(Br)cc1)C(=O)OCC | 3.94 µM | 3.66 µM | > 100 µM | 3.17 µM | 4.64 µM | 5.73 µM | 5.14 µM | 7.34 µM | 8.57 µM | 2.24 µM | 1.89 µM | 1.76 µM | 2.49 µM | 1.59 µM | 1.88 µM | 2.37 µM | 2.18 µM | 0.838 µM | 3.13 µM | 0.793 µM |
| COc1ccc(-c2c(N)[n+]([O-])c3cc(C)c(C)cc3[n+]2[O-])cc1OC | 50.3 µM | > 100 µM | > 100 µM | > 100 µM | > 100 µM | > 100 µM | > 100 µM | > 100 µM | > 100 µM | > 100 µM |  |  |  |  |  |  |  |  |  |  |
| O=[N+]([O-])c1ccc2nc(N/N=C/c3ccc(O)cc3)sc2c1 | 32.1 µM | 17.2 µM | > 100 µM | 56.1 µM | > 100 µM | 24.2 µM | 27.2 µM | > 100 µM | 29.8 µM | 10.6 µM | 12.4 µM | 2.72 µM | 2.58 µM | 5.16 µM | 7.37 µM | 4.18 µM | 5.19 µM | 3.28 µM | 3.97 µM | 3.08 µM |
| C=C(CO)CC(O)c1ccccc1 (stereo not drawn) | > 100 µM | > 100 µM | > 100 µM | > 100 µM | > 100 µM | > 100 µM | > 100 µM | > 100 µM | > 100 µM | > 100 µM |  |  |  |  |  |  |  |  |  |  |
| CS(=O)(=O)c1ccc(C(F)(F)F)cc1NC(=O)Nc1cnc(Oc2ccc(-c3cc(Cl)cnc3N)cc2)nc1 | 4.77 µM | 3.6 µM | 5.51 µM | 11.5 µM | > 37.5 µM | 4.42 µM | 5.09 µM | > 100 µM | 6.92 µM | 3.05 µM | 1.98 µM |  | 2.23 µM | 1.11 µM | 2.57 µM | 2.07 µM | 1.78 µM | 3.22 µM | 2.21 µM | 1.62 µM |
| O=[N+]([O-])c1ccc(N(CCO)CCO)c2c1no[n+]2[O-] | 2.22 µM | 2.53 µM | 4.65 µM | 5.47 µM | 6.66 µM | 2.72 µM | 3.68 µM | 4.71 µM | 8.22 µM | 2.43 µM | 0.852 µM | 1.16 µM | 1.58 µM | 0.961 µM | 1.8 µM | 0.645 µM | 1.58 µM | 0.704 µM | 2.2 µM | 1.03 µM |
| C/C=C/C=C/[C@H]1Cc2cc(O)cc(O)c2O1 | > 100 µM | > 100 µM | > 100 µM | > 100 µM | > 100 µM | > 100 µM | > 100 µM | > 100 µM | > 100 µM | > 100 µM |  |  |  |  |  |  |  |  |  |  |
| N#Cc1ccc(-n2cnc(NC(=O)[C@H]3CCN(C#N)C3)c2)cc1 | 1.93 µM | 11.8 µM | > 100 µM | 3.74 µM | 10.1 µM | > 34.7 µM | 4.76 µM | > 100 µM | 7.83 µM | > 100 µM | 0.372 µM | 1.58 µM | 2.67 µM | 0.519 µM | 2.38 µM | 2.35 µM | 2.03 µM | 1.03 µM | 1.49 µM | 1.27 µM |
| O=c1cccc(C#CCCCCOC2CCCO2)o1 (stereo not drawn) | > 31.1 µM | > 45.8 µM | > 100 µM | > 21.4 µM | 39 µM | > 100 µM |  | > 79.9 µM | 35.6 µM | > 74.5 µM | 16.1 µM | 20.4 µM | 52.3 µM | 11.4 µM | 8.27 µM | 6.81 µM | 4.09 µM | 7.14 µM | 13.4 µM | 32.6 µM |
